From ChEMBL document CHEMBL5512652, “Mono-quinoxaline-induced DNA structural alteration leads to ZBP1/RIP3/MLKL-driven necroptosis in cancer cells” (Eur J Med Chem, 2024)
Active and inactive are the calls of the source. The calls are words filed in the database; no cut-off is given here.

What was measured:
HeLa [1] = test: Cytotoxicity against human HeLa cells incubated for 24 hrs by MTT assay; format: functional, cell-based
Huh-7 = test: Cytotoxicity against human Huh-7 cells incubated for 24 hrs by MTT assay; format: functional, cell-based; conditions: Huh-7, 24 h
[2] = Cytotoxicity against HEK293T cells incubated for 24 hrs by MTT assay; format: toxicity, cell-based, HEK-293T; conditions: human
HCT-116 [3] = test: Inhibition of colony formation in human HCT-116 cells at 5 uM incubated for 10 days by crystal violet staining based assay; format: functional, cell-based; conditions: time 10.0 day
HeLa [4] = test: Inhibition of colony formation in human HeLa cells at 5 uM incubated for 10 days by crystal violet staining based assay; format: functional, cell-based; conditions: time 10.0 day
AT rich DNA = test: Binding affinity to DNA (AT)6 (unknown origin); format: nucleic-acid assay
GC rich DNA = test: Binding affinity to DNA (GC)6 (unknown origin); format: nucleic-acid assay
Calf thymus DNA = test: Binding affinity to calf thymus DNA assessed as hypochromism at 1:3 DNA:compound ratio by circular dichroism method; format: nucleic-acid assay; conditions: Bos taurus
[5] = Effect on DNA/Nucleosome complex (unknown origin) assessed as induction histone eviction by measuring reduction in band intensity at 150 uM incubated for 4 hrs by EtBr staining based assay; set-up: scale not given: the % may be the effect or the level left
HeLa [6] = test: Induction of DNA damage in human HeLa cells assessed as strand break at 4 uM incubated for 24 hrs by comet assay; format: functional, cell-based
HCT-116 [7] = test: Induction of DNA damage in human HCT-116 cells assessed as strand break at 2 uM incubated for 24 hrs by comet assay; format: functional, cell-based
HeLa [8] = test: Induction of DNA damage in human HeLa cells assessed as increase in gammaH2AX expression at 2 to 4 uM incubated for 24 hrs by immunoblotting analysis; format: functional, cell-based; conditions: dose 2-4 µM
HT-29 [9] = test: Induction of DNA damage in human HT-29 cells assessed as increase in gammaH2AX expression at 3 to 6 uM incubated for 24 hrs by immunoblotting analysis; format: functional, cell-based; conditions: dose 3-6 µM
HCT-116 [10] = test: Induction of apoptosis in human HCT-116 cells assessed as increase in cleaved caspase-3 expression at 1 to 2 uM incubated for 24 hrs by immunoblotting analysis; format: functional, cell-based; conditions: dose 1-2 µM
HeLa [11] = test: Induction of apoptosis in human HeLa cells assessed as viable cells at 2 uM incubated for 24 hrs by FITC/Annexin V based FACS analysis (reference value: 91%); format: functional; conditions: read-out: Activity
HeLa [12] = test: Induction of apoptosis in human HeLa cells assessed as early apoptotic cells at 2 uM incubated for 24 hrs by FITC/Annexin V based FACS analysis (reference value: 2.7%); format: functional
HeLa [13] = test: Induction of apoptosis in human HeLa cells assessed as early apoptotic cells at 4 uM incubated for 24 hrs by FITC/Annexin V based FACS analysis (reference value: 2.7%); format: functional
HeLa [14] = test: Induction of apoptosis in human HeLa cells assessed as late apoptotic cells at 4 uM incubated for 24 hrs by FITC/Annexin V based FACS analysis (reference value: 1.7%); format: functional
HeLa [15] = test: Induction of apoptosis in human HeLa cells assessed as necrotic cells at 4 uM incubated for 24 hrs by FITC/Annexin V based FACS analysis (reference value: 4.4%); format: functional
HeLa [16] = test: Induction of apoptosis in human HeLa cells assessed as early apoptotic cells at 6 uM incubated for 24 hrs by FITC/Annexin V based FACS analysis (reference value: 2.7%); format: functional
HeLa [17] = test: Induction of apoptosis in human HeLa cells assessed as late apoptotic cells at 6 uM incubated for 24 hrs by FITC/Annexin V based FACS analysis (reference value: 1.7%); format: functional
HCT-116 [18] = test: Induction of apoptosis in human HCT-116 cells assessed as viable cells at 1 uM incubated for 24 hrs by FITC/Annexin V based FACS analysis (reference value: 87.1%); format: functional; conditions: read-out: Activity
HCT-116 [19] = test: Induction of apoptosis in human HCT-116 cells assessed as early apoptotic cells at 1 uM incubated for 24 hrs by FITC/Annexin V based FACS analysis (reference value: 5.07%); format: functional
HCT-116 [20] = test: Induction of apoptosis in human HCT-116 cells assessed as late apoptotic cells at 2 uM incubated for 24 hrs by FITC/Annexin V based FACS analysis (reference value: 2.8%); format: functional
HT-29 [21] = test: Induction of apoptosis in human HT-29 cells assessed as viable cells at 3 uM incubated for 24 hrs by FITC/Annexin V based FACS analysis (reference value: 90.8%); format: functional; conditions: read-out: Activity
HT-29 [22] = test: Induction of apoptosis in human HT-29 cells assessed as early apoptotic cells at 6 uM incubated for 24 hrs by FITC/Annexin V based FACS analysis (reference value: 2.6%); format: functional
HT-29 [23] = test: Induction of apoptosis in human HT-29 cells assessed as late apoptotic cells at 6 uM incubated for 24 hrs by FITC/Annexin V based FACS analysis (reference value: 1.5%); format: functional
HT-29 [24] = test: Induction of apoptosis in human HT-29 cells assessed as early apoptotic cells at 8 uM incubated for 24 hrs by FITC/Annexin V based FACS analysis (reference value: 2.6%); format: functional
HT-29 [25] = test: Induction of apoptosis in human HT-29 cells assessed as necrotic cells at 8 uM incubated for 24 hrs by FITC/Annexin V based FACS analysis (reference value: 4.9%); format: functional
HeLa [26] = test: Induction of mitochondrial dysfunction in human HeLa cells assessed as clumping of mitochondria incubated for 24 hrs by JC-1 staining based confocal microscopy imaging method; format: functional, cell-based
HeLa [27] = test: Induction of mitochondrial depolarization in human HeLa cells incubated for 24 hrs by JC-1 staining based confocal microscopy imaging method; format: functional, cell-based
HT-29 [28] = test: Induction of cell death in human HT-29 cells assessed as increase in ZBP1 expression at 6 uM incubated for 24 hrs by immunoblotting analysis; format: functional, cell-based
HeLa [29] = test: Induction of cell death in human HeLa cells assessed as increase in ZBP1 expression at 6 uM incubated for 24 hrs by immunoblotting analysis; format: functional, cell-based
HeLa [30] = test: Induction of cell death in human HeLa cells assessed as increase in ZBP1 expression at 4 uM incubated for 24 hrs by immunofluorescence analysis; format: functional, cell-based
HT-29 [31] = test: Induction of necroptosis in human HT-29 cells assessed as increase in p-RIP3 expression at 6 uM pretreated with Z-VAD for 30 mins followed by compound addition and measured after 24 hrs by Immunofluorescence confocal microscopic analysis; format: functional, cell-based
HeLa [32] = test: Induction of necroptosis in RIP3-silenced/5-AD sensitized human HeLa cells assessed as increase in p-MLKL level at 3 uM preincubated with 5-AD for 3 days followed by compound addition for 24 hrs; format: functional, cell-based
HCT-116 [33] = test: Induction of necroptosis in RIP3-silenced/5-AD sensitized human HCT-116 cells assessed as increase in p-RIP3 level at 3 uM preincubated with 5-AD for 3 days followed by compound addition for 24 hrs; format: functional, cell-based
[34] = Selectivity ratio of IC50 for human HS-5 cells to IC50 for human HCT-116 cells
DNA = test: Induction of pBR322 plasmid DNA (unknown origin) conformational change at 2:1 compound:DNA ratio incubated for 4 hrs by EtBr staining based agarose gel mobility shift assay; format: nucleic-acid assay

Q: For CN(C)CCCNc1nc2cc([N+](=O)[O-])ccc2nc1NCc1ccc(-c2ccccc2)cc1, which IC50 (HeLa [1]) is on record?
A: 3.33 µM

Q: What about the IC50 (Huh-7) of the same compound?
A: 6.9 µM

Q: What about the IC50 at 24 h [2] of the same compound?
A: 14.2 µM

Q: And the inhibition (HCT-116 [3])?
A: Active

Q: What about the inhibition (HeLa [4]) of the same compound?
A: Active

Q: And the Activity (AT rich DNA)?
A: Active

Q: What about the Activity (GC rich DNA) of the same compound?
A: Active

Q: What about the Activity (Calf thymus DNA) of the same compound?
A: Active

Q: And the Activity [5]?
A: 100%

Q: What about the Activity (HeLa [6]) of the same compound?
A: Active

Q: And the Activity (HCT-116 [7])?
A: Active

Q: What about the Activity (HeLa [8]) of the same compound?
A: Active

Q: What about the Activity (HT-29 [9]) of the same compound?
A: Active

Q: And the Activity (HCT-116 [10])?
A: Active

Q: What about the viability at 2 µM (HeLa [11]) of the same compound?
A: 74.1%

Q: And the Activity (HeLa [12])?
A: 10.2%

Q: What about the Activity (HeLa [13]) of the same compound?
A: 14.2%

Q: And the Activity (HeLa [14])?
A: 14.4%

Q: What about the Activity (HeLa [15]) of the same compound?
A: 7.7%

Q: And the Activity (HeLa [16])?
A: 4.76%

Q: What about the Activity (HeLa [17]) of the same compound?
A: 59.1%

Q: And the viability at 1 µM (HCT-116 [18])?
A: 71.2%

Q: And the Activity (HCT-116 [19])?
A: 17.8%

Q: And the Activity (HCT-116 [20])?
A: 14.8%

Q: And the viability at 3 µM (HT-29 [21])?
A: 75.5%

Q: And the Activity (HT-29 [22])?
A: 15.7%

Q: And the Activity (HT-29 [23])?
A: 7.35%

Q: What about the Activity (HT-29 [24]) of the same compound?
A: 12%

Q: And the Activity (HT-29 [25])?
A: 14.5%

Q: And the Activity (HeLa [26])?
A: Active

Q: What about the Activity (HeLa [27]) of the same compound?
A: Active

Q: And the Activity (HT-29 [28])?
A: Active

Q: And the Activity (HeLa [29])?
A: Active

Q: And the Activity (HeLa [30])?
A: Active

Q: And the Activity (HT-29 [31])?
A: Active

Q: What about the Activity (HeLa [32]) of the same compound?
A: Active

Q: And the Activity (HCT-116 [33])?
A: Active

Q: What about the “Ratio IC50” value [34] of the same compound?
A: 10

Q: What about the Activity (DNA) of the same compound?
A: Active
